Experimental data published in ChEMBL document CHEMBL1201862, “PubChem BioAssay data set” (2004).
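Values below derive from 48-hour exposures of cells grown in 96-well plates, with endpoints linearly interpolated between the two concentrations bracketing the appropriate inhibition level. Here, GI50 denotes the concentration required for 50% inhibition of growth.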 Calls of active or inactive are those of the source. No stated cut-off is given here; in the data, active = GI50 up to about 1.1 µM and inactive = higher.

Experiments:
Assay in all cases: inhibition of tumour cell growth, NCI panel, 48 h
786-0 = system: 786-0
A549 = system: A549
ACHN = system: ACHN
CAKI-1 = system: CAKI-1
DLD-1 = system: DLD-1
DMS-114 = system: DMS-114
EKVX = system: EKVX
HCC 2998 = system: HCC 2998
HCT-116 = system: HCT-116
HCT-15 = system: HCT-15
HOP-18 = system: HOP-18
HOP-92 = system: HOP-92
HT-29 = system: HT-29
IGROV-1 = system: IGROV-1
K562 = system: K562
KM-20L2 = system: KM-20L2
KM12 = system: KM12
LXFL 529 = system: LXFL 529
M14 = system: M14
MOLT-4 = system: MOLT-4
Malme-3M = system: Malme-3M
NCI-H226 = system: NCI-H226
NCI-H23 = system: NCI-H23
NCI-H460 = system: NCI-H460
NCI-H522 = system: NCI-H522
OVCAR-3 = system: OVCAR-3
OVCAR-4 = system: OVCAR-4
OVCAR-5 = system: OVCAR-5
OVCAR-8 = system: OVCAR-8
RPMI-8226 = system: RPMI-8226
RXF 393 = system: RXF 393
RXF 631 = system: RXF 631
SF-295 = system: SF-295
SF-539 = system: SF-539
SK-MEL-28 = system: SK-MEL-28
SK-MEL-2 = system: SK-MEL-2
SK-MEL-5 = system: SK-MEL-5
SK-OV-3 = system: SK-OV-3
SN12C = system: SN12C
SNB-19 = system: SNB-19
SNB-75 = system: SNB-75
SNB-78 = system: SNB-78
SR = system: SR
SW-620 = system: SW-620
TK-10 = system: TK-10
U-251 = system: U-251
UACC-257 = system: UACC-257
UACC-62 = system: UACC-62
UO-31 = system: UO-31
XF498 = system: XF498
CCRF-CEM = system: CCRF-CEM
COLO 205 = system: COLO 205
HL-60 = system: HL-60
LOX IMVI = system: LOX IMVI
SF-268 = system: SF-268
A498 = system: A498
DMS-273 = system: DMS-273
HOP-62 = system: HOP-62
M19-MEL = system: M19-MEL

## CC(=O)OC1CCn2nnc(COC(=O)NC(C)C)c21 (configuration not stated)
786-0
  GI50: > 100 µM (inactive)
A549
  GI50: > 100 µM (inactive)
ACHN
  GI50: > 100 µM (inactive)
CAKI-1
  GI50: > 100 µM (inactive)
DLD-1
  GI50: > 100 µM (inactive)
DMS-114
  GI50: > 100 µM (inactive)
EKVX
  GI50: > 100 µM (inactive)
HCC 2998
  GI50: > 100 µM (inactive)
HCT-116
  GI50: > 100 µM (inactive)
HCT-15
  GI50: > 100 µM
HOP-18
  GI50: > 100 µM (inactive)
HOP-92
  GI50: > 100 µM (inactive)
HT-29
  GI50: > 100 µM (inactive)
IGROV-1
  GI50: > 100 µM (inactive)
K562
  GI50: > 100 µM (inactive)
KM-20L2
  GI50: > 100 µM (inactive)
KM12
  GI50: > 100 µM (inactive)
LXFL 529
  GI50: > 100 µM (inactive)
M14
  GI50: > 100 µM (inactive)
MOLT-4
  GI50: > 100 µM (inactive)
Malme-3M
  GI50: > 100 µM (inactive)
NCI-H226
  GI50: > 100 µM (inactive)
NCI-H23
  GI50: > 100 µM (inactive)
NCI-H460
  GI50: > 100 µM (inactive)
NCI-H522
  GI50: > 100 µM (inactive)
OVCAR-3
  GI50: > 100 µM (inactive)
OVCAR-4
  GI50: > 100 µM (inactive)
OVCAR-5
  GI50: > 100 µM (inactive)
OVCAR-8
  GI50: > 100 µM (inactive)
RPMI-8226
  GI50: > 100 µM (inactive)
RXF 393
  GI50: > 100 µM (inactive)
RXF 631
  GI50: > 100 µM (inactive)
SF-295
  GI50: > 100 µM (inactive)
SF-539
  GI50: > 100 µM (inactive)
SK-MEL-28
  GI50: > 100 µM (inactive)
SK-MEL-2
  GI50: > 100 µM (inactive)
SK-MEL-5
  GI50: > 100 µM (inactive)
SK-OV-3
  GI50: > 100 µM (inactive)
SN12C
  GI50: > 100 µM (inactive)
SNB-19
  GI50: > 100 µM (inactive)
SNB-75
  GI50: > 100 µM (inactive)
SNB-78
  GI50: > 100 µM (inactive)
SR
  GI50: > 100 µM (inactive)
SW-620
  GI50: > 100 µM (inactive)
TK-10
  GI50: > 100 µM (inactive)
U-251
  GI50: > 100 µM (inactive)
UACC-257
  GI50: > 100 µM (inactive)
UACC-62
  GI50: > 100 µM (inactive)
UO-31
  GI50: > 100 µM (inactive)
XF498
  GI50: > 100 µM (inactive)

## C[C@H](C(=O)C12CC3CC(CC(C3)C1)C2)[C@H](O)c1ccccc1
786-0
  GI50: 22.8 µM (inactive)
A549
  GI50: 40.7 µM (inactive)
ACHN
  GI50: 33.8 µM (inactive)
CAKI-1
  GI50: 36 µM (inactive)
CCRF-CEM
  GI50: 32.5 µM (inactive)
COLO 205
  GI50: 15 µM (inactive)
DLD-1
  GI50: 45.5 µM (inactive)
EKVX
  GI50: 43.7 µM (inactive)
HCT-116
  GI50: 16.1 µM (inactive)
HL-60
  GI50: 23.1 µM (inactive)
HOP-18
  GI50: 98.9 µM (inactive)
HOP-92
  GI50: 21.9 µM (inactive)
HT-29
  GI50: 18.7 µM (inactive)
IGROV-1
  GI50: 40 µM (inactive)
K562
  GI50: 39.4 µM (inactive)
KM-20L2
  GI50: 20.8 µM (inactive)
KM12
  GI50: 25.5 µM (inactive)
LOX IMVI
  GI50: 17.5 µM (inactive)
LXFL 529
  GI50: 43.8 µM (inactive)
M14
  GI50: 29.6 µM (inactive)
MOLT-4
  GI50: 23.9 µM (inactive)
NCI-H226
  GI50: 16.8 µM (inactive)
NCI-H23
  GI50: 36.7 µM (inactive)
NCI-H460
  GI50: 35.2 µM (inactive)
NCI-H522
  GI50: 22 µM (inactive)
OVCAR-3
  GI50: 22.4 µM (inactive)
OVCAR-4
  GI50: 44 µM (inactive)
OVCAR-5
  GI50: 17.5 µM (inactive)
OVCAR-8
  GI50: 33.5 µM (inactive)
RPMI-8226
  GI50: 36 µM (inactive)
RXF 393
  GI50: 20.1 µM (inactive)
RXF 631
  GI50: 31.2 µM (inactive)
SF-268
  GI50: 15.2 µM (inactive)
SF-295
  GI50: 31.9 µM (inactive)
SF-539
  GI50: 33.3 µM (inactive)
SK-MEL-28
  GI50: 17.6 µM (inactive)
SK-MEL-2
  GI50: 19 µM (inactive)
SK-MEL-5
  GI50: 17.6 µM (inactive)
SK-OV-3
  GI50: 83.9 µM (inactive)
SN12C
  GI50: 19.5 µM (inactive)
SNB-19
  GI50: 61.1 µM (inactive)
SNB-75
  GI50: 27 µM (inactive)
SNB-78
  GI50: 31.6 µM (inactive)
SR
  GI50: 29.4 µM (inactive)
SW-620
  GI50: 47.9 µM (inactive)
TK-10
  GI50: 36.1 µM (inactive)
UACC-257
  GI50: 29.9 µM (inactive)
UACC-62
  GI50: 28.4 µM (inactive)
UO-31
  GI50: 29 µM (inactive)
XF498
  GI50: 26 µM (inactive)

## O=C1C(Br)=C[C@H]2C3C=CC(Br)(C3=O)[C@@H]12 (some centres not stated)
786-0
  GI50: 14.7 µM (inactive)
A498
  GI50: 19 µM (inactive)
A549
  GI50: 15.3 µM (inactive)
ACHN
  GI50: 14.6 µM (inactive)
CAKI-1
  GI50: 9.25 µM (inactive)
CCRF-CEM
  GI50: 2.59 µM (inactive)
COLO 205
  GI50: 9.75 µM (inactive)
DLD-1
  GI50: 7.57 µM (inactive)
DMS-114
  GI50: 14 µM (inactive)
DMS-273
  GI50: 12.8 µM (inactive)
EKVX
  GI50: 15.4 µM (inactive)
HCC 2998
  GI50: 13.3 µM (inactive)
HCT-116
  GI50: 10.9 µM (inactive)
HCT-15
  GI50: 12.2 µM
HL-60
  GI50: 2.43 µM (inactive)
HOP-18
  GI50: 49.4 µM (inactive)
HOP-62
  GI50: 35.6 µM (inactive)
HOP-92
  GI50: 16.2 µM (inactive)
HT-29
  GI50: 10.5 µM (inactive)
IGROV-1
  GI50: 9.62 µM (inactive)
K562
  GI50: 7.62 µM (inactive)
KM-20L2
  GI50: 4.84 µM (inactive)
KM12
  GI50: 11.9 µM (inactive)
LXFL 529
  GI50: 10.2 µM (inactive)
M14
  GI50: 9.33 µM (inactive)
M19-MEL
  GI50: 11.8 µM (inactive)
MOLT-4
  GI50: 2.3 µM (inactive)
Malme-3M
  GI50: 13.2 µM (inactive)
NCI-H226
  GI50: 19 µM (inactive)
NCI-H23
  GI50: 12.5 µM (inactive)
NCI-H522
  GI50: 5.85 µM (inactive)
OVCAR-3
  GI50: 13.6 µM (inactive)
OVCAR-4
  GI50: 15.7 µM (inactive)
OVCAR-5
  GI50: 15.6 µM (inactive)
OVCAR-8
  GI50: 12.5 µM (inactive)
RPMI-8226
  GI50: 3.05 µM (inactive)
RXF 393
  GI50: 13.8 µM (inactive)
RXF 631
  GI50: 14.4 µM (inactive)
SF-268
  GI50: 12.9 µM (inactive)
SF-295
  GI50: 18 µM (inactive)
SF-539
  GI50: 13.3 µM (inactive)
SK-MEL-28
  GI50: 12.6 µM (inactive)
SK-MEL-2
  GI50: 14.3 µM (inactive)
SK-MEL-5
  GI50: 14 µM (inactive)
SK-OV-3
  GI50: 7.69 µM (inactive)
SN12C
  GI50: 13.2 µM (inactive)
SNB-19
  GI50: 14.1 µM (inactive)
SNB-75
  GI50: 22.5 µM (inactive)
SNB-78
  GI50: 94.8 µM (inactive)
SW-620
  GI50: 9.18 µM (inactive)
U-251
  GI50: 13.8 µM (inactive)
UACC-257
  GI50: 12.2 µM (inactive)
UACC-62
  GI50: 3.82 µM (inactive)
UO-31
  GI50: 16.7 µM (inactive)
XF498
  GI50: 17.5 µM (inactive)

## COc1ccc(C2SCc3nc4ccccc4n32)cc1 (configuration not stated)
A498
  GI50: 5.13 µM (inactive)
ACHN
  GI50: 5.04 µM (inactive)
CAKI-1
  GI50: 2.21 µM (inactive)
CCRF-CEM
  GI50: 3.49 µM (inactive)
COLO 205
  GI50: 2.73 µM (inactive)
DMS-114
  GI50: 2.26 µM (inactive)
DMS-273
  GI50: 3.43 µM (inactive)
EKVX
  GI50: 19.5 µM (inactive)
HCT-15
  GI50: 3.16 µM
HL-60
  GI50: 1.91 µM (inactive)
HOP-18
  GI50: > 100 µM (inactive)
HOP-92
  GI50: 1.85 µM (inactive)
HT-29
  GI50: 2.4 µM (inactive)
IGROV-1
  GI50: 4.66 µM (inactive)
K562
  GI50: 2.34 µM (inactive)
KM-20L2
  GI50: 2.4 µM (inactive)
LOX IMVI
  GI50: 5.78 µM (inactive)
LXFL 529
  GI50: 5.48 µM (inactive)
M14
  GI50: 4.95 µM (inactive)
M19-MEL
  GI50: 3.95 µM (inactive)
MOLT-4
  GI50: 3.37 µM (inactive)
Malme-3M
  GI50: 7.55 µM (inactive)
NCI-H226
  GI50: 8.99 µM (inactive)
NCI-H23
  GI50: 4.04 µM (inactive)
NCI-H460
  GI50: 3.86 µM (inactive)
NCI-H522
  GI50: 0.986 µM (active)
OVCAR-3
  GI50: 6.28 µM (inactive)
OVCAR-8
  GI50: 6.07 µM (inactive)
RPMI-8226
  GI50: 2.96 µM (inactive)
RXF 631
  GI50: 7.26 µM (inactive)
SF-268
  GI50: 5.43 µM (inactive)
SF-295
  GI50: 2.94 µM (inactive)
SF-539
  GI50: 5.66 µM (inactive)
SK-MEL-28
  GI50: 4.32 µM (inactive)
SK-MEL-2
  GI50: 3.9 µM (inactive)
SK-MEL-5
  GI50: 3.84 µM (inactive)
SK-OV-3
  GI50: 3.5 µM (inactive)
SN12C
  GI50: 4.41 µM (inactive)
SNB-19
  GI50: 6.07 µM (inactive)
SNB-75
  GI50: 1.82 µM (inactive)
SNB-78
  GI50: 8.95 µM (inactive)
SW-620
  GI50: 3.44 µM (inactive)
TK-10
  GI50: 23.2 µM (inactive)
U-251
  GI50: 3.33 µM (inactive)
UACC-62
  GI50: 3.58 µM (inactive)
UO-31
  GI50: 10 µM (inactive)
XF498
  GI50: 0.124 µM (active)
